Paper PMC3843973 (Journal of medicinal chemistry, 2013)
Where two headings read alike, the source gives them in different places.

Experiments:
rat α3β4 nAChR = rat α3β4 nAChR (Rattus norvegicus, UniProt P04757+P12392); settings: cited from earlier work
human α4β2-nAChRs = human α4β2-nAChRs (Homo sapiens, UniProt P17787+P43681); format: cell-based; settings: mixture of HS and LS α4β2-nAChRs; 10 min preincubation
BALB/cJ male mice = settings: mouse
[1] = tested on: strains TA98, TA100, TA1535, and TA1537; test: bacteria reversion mutation assay; settings: strain TA1537 in the presence of S9 fraction, 50 and 100 μM
Caco-2 cells = test: bidirectional Caco-2 cell permeability assay; format: in vitro ADME; settings: Caco-2 bidirectional
[2] = bidirectional Caco-2 cell permeability assay; format: in vitro ADME; settings: human, Caco-2, pH 7.4
[3] = chemical stability on storage; format: physicochemical; settings: stored at room temperature for several months
[4] = target: α4β2*-nAChR, prepared from rat forebrain (Rattus norvegicus, UniProt P09483+P12390); settings: read-out: Ki α4β2*; cited from earlier work
α4β2*-nAChR, prepared from rat forebrain, sequence (P09483 31-630): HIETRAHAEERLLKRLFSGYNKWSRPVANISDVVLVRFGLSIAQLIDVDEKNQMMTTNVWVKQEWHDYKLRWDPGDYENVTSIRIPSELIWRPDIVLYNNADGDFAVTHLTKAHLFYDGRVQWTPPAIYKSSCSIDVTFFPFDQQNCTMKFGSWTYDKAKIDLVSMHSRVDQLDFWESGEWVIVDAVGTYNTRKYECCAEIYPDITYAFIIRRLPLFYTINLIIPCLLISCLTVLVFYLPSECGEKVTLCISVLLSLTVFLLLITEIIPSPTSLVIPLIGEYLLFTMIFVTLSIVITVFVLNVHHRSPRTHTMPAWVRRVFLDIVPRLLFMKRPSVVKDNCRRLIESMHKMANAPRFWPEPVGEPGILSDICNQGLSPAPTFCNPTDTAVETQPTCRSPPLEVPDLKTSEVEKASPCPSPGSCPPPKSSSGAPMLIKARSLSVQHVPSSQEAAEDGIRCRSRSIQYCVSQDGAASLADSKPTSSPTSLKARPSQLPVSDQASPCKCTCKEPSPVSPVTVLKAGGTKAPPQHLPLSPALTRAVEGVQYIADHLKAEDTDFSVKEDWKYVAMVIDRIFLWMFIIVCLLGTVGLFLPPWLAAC
α4β2*-nAChR, prepared from rat forebrain, sequence (P12390 25-500): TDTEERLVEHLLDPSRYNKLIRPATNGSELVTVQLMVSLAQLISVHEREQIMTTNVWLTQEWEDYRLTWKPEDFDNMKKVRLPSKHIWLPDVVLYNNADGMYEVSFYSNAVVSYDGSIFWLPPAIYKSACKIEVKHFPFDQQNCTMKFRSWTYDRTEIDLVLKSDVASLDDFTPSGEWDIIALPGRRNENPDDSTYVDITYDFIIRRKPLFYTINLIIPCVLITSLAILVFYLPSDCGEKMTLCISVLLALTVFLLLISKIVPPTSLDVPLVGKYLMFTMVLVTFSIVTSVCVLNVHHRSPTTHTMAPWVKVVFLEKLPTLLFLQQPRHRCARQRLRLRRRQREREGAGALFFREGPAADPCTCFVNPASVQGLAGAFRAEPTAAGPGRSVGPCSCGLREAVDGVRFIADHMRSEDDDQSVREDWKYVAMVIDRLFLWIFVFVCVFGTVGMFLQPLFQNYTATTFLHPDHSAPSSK

rat α4β4 nAChR = rat α4β4 nAChR (Rattus norvegicus, UniProt P09483+P12392); settings: read-out: Ki α4β4; cited from earlier work
rat α4β4 nAChR, sequence (P12392 21-495): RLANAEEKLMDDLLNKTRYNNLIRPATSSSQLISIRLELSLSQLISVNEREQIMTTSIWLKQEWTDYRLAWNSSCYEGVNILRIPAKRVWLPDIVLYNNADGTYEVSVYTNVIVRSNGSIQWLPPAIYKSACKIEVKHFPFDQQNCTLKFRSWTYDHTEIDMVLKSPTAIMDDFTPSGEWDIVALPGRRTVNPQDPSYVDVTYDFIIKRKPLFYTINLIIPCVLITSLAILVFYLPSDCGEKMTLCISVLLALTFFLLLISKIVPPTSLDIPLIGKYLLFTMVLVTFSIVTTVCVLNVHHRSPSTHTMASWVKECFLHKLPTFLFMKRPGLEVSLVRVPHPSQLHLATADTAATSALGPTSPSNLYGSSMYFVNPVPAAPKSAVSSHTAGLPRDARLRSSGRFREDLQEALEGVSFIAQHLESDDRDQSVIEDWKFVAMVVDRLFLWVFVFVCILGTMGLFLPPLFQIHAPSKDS
rat α4β4 nAChR, sequence (P09483 31-630): as the sequence (P09483 31-630) above

rat α2β4 nAChR = rat α2β4 nAChR (Rattus norvegicus, UniProt P12389+P12392); settings: read-out: Ki α2β4; cited from earlier work
rat α2β4 nAChR, sequence (P12389 28-511): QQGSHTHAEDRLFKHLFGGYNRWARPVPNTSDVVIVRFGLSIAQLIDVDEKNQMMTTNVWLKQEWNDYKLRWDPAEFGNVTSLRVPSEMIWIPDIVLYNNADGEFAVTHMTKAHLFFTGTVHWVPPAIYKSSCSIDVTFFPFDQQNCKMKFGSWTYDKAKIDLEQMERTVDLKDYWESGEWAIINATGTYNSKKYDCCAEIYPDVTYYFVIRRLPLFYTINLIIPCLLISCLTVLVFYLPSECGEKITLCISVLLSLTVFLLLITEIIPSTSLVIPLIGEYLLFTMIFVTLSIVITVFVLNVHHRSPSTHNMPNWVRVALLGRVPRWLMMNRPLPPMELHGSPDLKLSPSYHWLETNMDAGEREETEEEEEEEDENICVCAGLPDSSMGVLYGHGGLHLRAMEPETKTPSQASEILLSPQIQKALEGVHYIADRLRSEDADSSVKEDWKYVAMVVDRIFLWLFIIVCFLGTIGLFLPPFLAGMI
rat α2β4 nAChR, sequence (P12392 21-495): as the sequence (P12392 21-495) above

rat α2β2 nAChR = rat α2β2 nAChR (Rattus norvegicus, UniProt P12389+P12390); settings: read-out: Ki α2β2; cited from earlier work
rat α2β2 nAChR, sequence (P12389 28-511): as the sequence (P12389 28-511) above
rat α2β2 nAChR, sequence (P12390 25-500): as the sequence (P12390 25-500) above

rat α4β2 nAChR = rat α4β2 nAChR (Rattus norvegicus, UniProt P09483+P12390); settings: read-out: Ki α4β2; cited from earlier work
rat α4β2 nAChR, sequence (P12390 25-500): as above
rat α4β2 nAChR, sequence (P09483 31-630): as the sequence (P09483 31-630) above

rat α3β2 nAChR = rat α3β2 nAChR (Rattus norvegicus, UniProt P04757+P12390); settings: read-out: Ki α3β2; cited from earlier work
rat α3β2 nAChR, sequence (P12390 25-500): as the sequence (P12390 25-500) above
rat α3β2 nAChR, sequence (P04757 26-499): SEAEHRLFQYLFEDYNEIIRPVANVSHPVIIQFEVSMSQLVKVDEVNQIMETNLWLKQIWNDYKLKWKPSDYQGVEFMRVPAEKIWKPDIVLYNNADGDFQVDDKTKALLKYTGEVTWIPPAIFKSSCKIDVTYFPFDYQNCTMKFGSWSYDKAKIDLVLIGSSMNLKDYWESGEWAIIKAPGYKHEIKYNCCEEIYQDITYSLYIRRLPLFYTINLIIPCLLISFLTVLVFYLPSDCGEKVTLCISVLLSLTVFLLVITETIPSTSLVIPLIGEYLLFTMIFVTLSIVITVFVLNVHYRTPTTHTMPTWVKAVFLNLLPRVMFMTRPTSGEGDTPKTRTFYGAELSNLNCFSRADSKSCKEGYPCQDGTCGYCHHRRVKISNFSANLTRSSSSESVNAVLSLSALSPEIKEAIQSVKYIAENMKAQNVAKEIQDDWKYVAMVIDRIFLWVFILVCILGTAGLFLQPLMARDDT

rat α3β4 nAChR, sequence (P12392 21-495): as the sequence (P12392 21-495) above
rat α3β4 nAChR, sequence (P04757 26-499): as the sequence (P04757 26-499) above
human α4β2-nAChRs, sequence (P43681 29-627 limits assumed): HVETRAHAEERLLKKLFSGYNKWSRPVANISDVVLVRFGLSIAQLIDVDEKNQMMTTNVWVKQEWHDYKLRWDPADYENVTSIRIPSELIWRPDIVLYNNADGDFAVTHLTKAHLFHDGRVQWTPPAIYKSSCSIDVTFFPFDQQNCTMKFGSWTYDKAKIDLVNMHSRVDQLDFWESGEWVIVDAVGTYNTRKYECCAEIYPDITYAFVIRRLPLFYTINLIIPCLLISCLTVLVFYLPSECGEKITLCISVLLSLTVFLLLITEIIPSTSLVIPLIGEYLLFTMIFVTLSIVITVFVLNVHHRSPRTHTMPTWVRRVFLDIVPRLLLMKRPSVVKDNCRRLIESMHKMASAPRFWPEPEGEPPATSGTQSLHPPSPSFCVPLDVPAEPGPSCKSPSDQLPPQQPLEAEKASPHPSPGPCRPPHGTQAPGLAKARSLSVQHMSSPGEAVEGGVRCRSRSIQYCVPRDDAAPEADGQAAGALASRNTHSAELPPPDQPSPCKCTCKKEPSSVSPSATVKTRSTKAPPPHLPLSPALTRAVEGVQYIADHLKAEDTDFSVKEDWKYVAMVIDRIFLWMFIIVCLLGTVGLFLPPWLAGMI
human α4β2-nAChRs, sequence (P17787 26-502): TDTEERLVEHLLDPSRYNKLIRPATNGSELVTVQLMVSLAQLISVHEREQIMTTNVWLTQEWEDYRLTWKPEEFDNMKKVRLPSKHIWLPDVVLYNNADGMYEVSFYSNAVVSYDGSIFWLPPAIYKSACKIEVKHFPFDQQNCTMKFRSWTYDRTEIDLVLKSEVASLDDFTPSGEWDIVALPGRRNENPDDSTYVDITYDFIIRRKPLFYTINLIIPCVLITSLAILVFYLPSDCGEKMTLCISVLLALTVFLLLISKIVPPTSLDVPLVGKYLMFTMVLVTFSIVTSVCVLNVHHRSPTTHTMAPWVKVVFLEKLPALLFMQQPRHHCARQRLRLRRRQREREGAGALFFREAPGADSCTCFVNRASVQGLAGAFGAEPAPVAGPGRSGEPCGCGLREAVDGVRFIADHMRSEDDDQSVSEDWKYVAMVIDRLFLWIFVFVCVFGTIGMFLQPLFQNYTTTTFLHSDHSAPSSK

For `COCC[C@H]1C[C@@H]1c1cncc(OC[C@@H]2CCN2)c1` [Compound 4], the “Ki α3β4” value (rat α3β4 nAChR) is given as “NA (not active, defined as < 50% binding in the primary assay at 10 μM)” and the “Inactivation α4β2 Efficacy” value (human α4β2-nAChRs) is given as 71 ± 5.5%.
In the case of `COCC[C@H]1C[C@@H]1c1cncc(OC[C@@H]2CCCN2)c1.O=C(O)C(F)(F)F` [Compound 24, 3-[(2(S)-Pyrrolidinyl)methoxy]-5-[(1S,2R)-2-(2-methoxyethyl)cyclopropyl]pyridine Trifluoroacetate], the “effect in the forced swim test” value (BALB/cJ male mice; in vivo) is reported as “no significant effects”.
With `COCC[C@H]1C[C@@H]1c1cncc(OC[C@@H]2CCCN2C)c1.O=C(O)C(F)(F)F` [Compound 26, 3-[(1-Methyl-2(S)-pyrrolidinyl)methoxy]-5-[(1S,2R)-2-(2-methoxyethyl)cyclopropyl]pyridine Trifluoroacetate] the “Ames test mutagenic potential” value [1] was “positive significance”, the permeability class (Caco-2 cells) was “high permeability” and the efflux ratio [2] was 0.2. The chemical stability [3] was “little or no sign of decomposition”, the “minimal dose with significant reduction in immobility” value (BALB/cJ male mice; in vivo, ip) was 1 mg/kg and the “minimal dose with significant reduction in immobility” value (BALB/cJ male mice; in vivo, po) was 1 mg/kg.
For `COCC[C@H]1C[C@@H]1c1cncc(OC[C@H]2CCNC2)c1.O=C(O)C(F)(F)F` [Compound 30, 3-[(3(S)-Pyrrolidinyl)methoxy]-5-[(1S,2R)-2-(2-methoxyethyl)cyclopropyl]pyridine Trifluoroacetate], the abnormal behavioral effects (BALB/cJ male mice; intraperitoneal, 5 mg/kg) was “sedation and tremor”.
In the case of `OCCCCC#Cc1cncc(OC[C@@H]2CCN2)c1` [saz-A, sazetidine-A], the Ki [4] is listed as 0.17 nM, the Ki (rat α4β4 nAChR) is listed as 52 nM and the Ki (rat α2β4 nAChR) is listed as 210 nM. For the same compound, the Ki (rat α3β4 nAChR; read-out: Ki α3β4) was 1900 nM, the Ki (rat α2β2 nAChR) was 0.087 nM and the Ki (rat α4β2 nAChR) was 0.062 nM. The Ki (rat α3β2 nAChR) was 0.38 nM.
In the case of `CN[C@H]1CC[C@@H](c2ccc(Cl)c(Cl)c2)c2ccccc21` [sertraline, reference compound], the “effect on immobility (positive control)” value (BALB/cJ male mice; 20 mg/kg) is reported as “expected decrease in immobility”.
